# Measured values taken from ChEMBL document CHEMBL1177844 (Eur J Med Chem, 2010).
# Experiment: Inhibition of ROCK
row,SMILES,pIC50
1,Cc1ccc(CN2CCCC(Nc3ccc4[nH]ncc4c3)C2)cc1 (stereo not drawn),8.05
2,Clc1ccc(CN2CCC(Nc3ccc4[nH]ncc4c3)CC2)cc1,6.54
3,Nc1ccccc1CN1CCCC(Nc2ccc3[nH]ncc3c2)C1 (stereo not drawn),7.07
4,CC(C)CCN1CCCC(Nc2ccc3[nH]ncc3c2)C1 (stereo not drawn),6.47
5,O=C(NCc1ccccc1)Nc1ccc2[nH]ncc2c1,6.59
6,c1ccc(CN2CCCC(Oc3ccc4[nH]ncc4c3)C2)cc1 (stereo not drawn),8
7,COc1cc(CN2CCCC(Nc3ccc4[nH]ncc4c3)C2)cc(OC)c1 (stereo not drawn),7.1
8,c1ccc(CN2CCCC(Nc3ccc4[nH]ncc4c3)C2)cc1 (stereo not drawn),7.7
9,Clc1ccc(CN2CCCC(Nc3ccc4[nH]ncc4c3)C2)cc1 (stereo not drawn),7.96
10,CCCN1CCCC(Nc2ccc3[nH]ncc3c2)C1 (stereo not drawn),6.11
11,O=C(COc1c(Cl)cccc1Cl)Nc1ccc2[nH]ncc2c1,6
12,Fc1ccc(CN2CCCC(Nc3ccc4[nH]ncc4c3)C2)cc1F (stereo not drawn),8
13,c1ccc(CN2CCC(Nc3ccc4[nH]ncc4c3)C2)cc1 (stereo not drawn),7.49
14,O=C(Nc1ccc2[nH]ncc2c1)C1CCN(Cc2ccccc2)CC1,6.87
15,Fc1ccc(CN2CCCC(Nc3ccc4[nH]ncc4c3)C2)cc1 (stereo not drawn),7.6
16,O=C(NCc1c(F)cccc1F)Nc1ccc2[nH]ncc2c1,7.07

row,SMILES,pIC50
1,COc1ccc(CN2CCCC(Nc3ccc4[nH]ncc4c3)C2)cc1 (stereo not drawn),7.8
2,O=C(Nc1ccc2[nH]ncc2c1)C1CCCN(Cc2ccccc2)C1 (stereo not drawn),7.74
3,O=C(NCc1ccc(Cl)cc1Cl)Nc1ccc2[nH]ncc2c1,6.66
4,O=C(NCc1c(Cl)cccc1Cl)Nc1ccc2[nH]ncc2c1,7.7
5,O=C(CC1CCCCC1)Nc1ccc2[nH]ncc2c1,6.05
6,c1cc2[nH]ncc2cc1NC1CCNC1 (stereo not drawn),7
7,O=C(Nc1ccc2[nH]ncc2c1)C1CCCCC1,6.3
8,Nc1ccc(CN2CCCC(Nc3ccc4[nH]ncc4c3)C2)cc1 (stereo not drawn),8
9,CN(CCNc1ccc2[nH]ncc2c1)Cc1ccccc1,5.1
10,O=C(COc1c(Cl)cc(F)cc1Cl)Nc1ccc2[nH]ncc2c1,6.3
11,Clc1ccccc1CN1CCCC(Nc2ccc3[nH]ncc3c2)C1 (stereo not drawn),7.89
12,Cc1n[nH]c2ccc(NC3CCCN(Cc4ccccc4)C3)cc12 (stereo not drawn),6.82
13,O=C(NC1CCN(Cc2ccccc2)CC1)c1ccc2[nH]ncc2c1,6.27
14,O=[N+]([O-])c1ccc(CN2CCCC(Nc3ccc4[nH]ncc4c3)C2)cc1 (stereo not drawn),7.06
15,Clc1ccccc1CN1CCC(Nc2ccc3[nH]ncc3c2)C1 (stereo not drawn),7.35
16,c1ccc(CN2CCC(Oc3ccc4[nH]ncc4c3)CC2)cc1,7

# Further lines, results first:
row,pIC50,SMILES
1,6.49,c1ccc(CN[C@H]2CC[C@@H](Nc3ccc4[nH]ncc4c3)CC2)cc1
2,7.72,Clc1cccc(CN2CCCC(Nc3ccc4[nH]ncc4c3)C2)c1 (stereo not drawn)
3,7.19,Clc1ccc(CN2CCC(Nc3cccc4cnccc34)C2)cc1 (stereo not drawn)
4,7,CC(C)CCCN1CCCC(Nc2cccc3cnccc23)C1 (stereo not drawn)
5,7.19,Clc1cccc(CN2CCC(Nc3cccc4cnccc34)C2)c1 (stereo not drawn)
6,6.74,CCCN[C@H]1CC[C@@H](Nc2cccc3cnccc23)CC1
7,7.12,Fc1cccc(F)c1CN1CCC(Nc2cccc3cnccc23)C1 (stereo not drawn)
8,7.96,c1c[nH]c(CN2CCCC(Nc3ccc4[nH]ncc4c3)C2)c1 (stereo not drawn)
9,6.54,Clc1cccc(CN2CCC(Nc3ccc4[nH]ncc4c3)CC2)c1
10,6.57,CC(C)CCN1CCCC(Nc2cccc3cnccc23)C1 (stereo not drawn)
11,6.24,c1ccc(CCN[C@H]2CC[C@@H](Nc3cccc4cnccc34)CC2)cc1
12,6.74,c1coc(CN2CCCC(Nc3ccc4[nH]ncc4c3)C2)c1 (stereo not drawn)
13,7.02,Fc1ccc(CN2CCC(Nc3cccc4cnccc34)C2)cc1 (stereo not drawn)
14,6.68,CC(C)CN1CCC(Nc2cccc3cnccc23)CC1
15,6.7,c1ccc(CN2CCCC(Nc3cccc4cnccc34)C2)cc1 (stereo not drawn)
16,6.36,Clc1ccccc1CN1CCC(Nc2ccc3[nH]ncc3c2)CC1
17,7.15,c1cc(N[C@H]2CC[C@H](NC3CC3)CC2)c2ccncc2c1
18,7.14,c1cncc(CN2CCCC(Nc3ccc4[nH]ncc4c3)C2)c1 (stereo not drawn)

row,pIC50,SMILES
1,6.62,c1ccc(CN2CCCC(Nc3ccc4[nH]ncc4c3)C2)nc1 (stereo not drawn)
2,6.46,CCCN1CCC(Nc2cccc3cnccc23)CC1
3,6.74,c1cc(N[C@H]2CC[C@@H](NC3CC3)CC2)c2ccncc2c1
4,7.46,Nc1cccc(CN2CCCC(Nc3ccc4[nH]ncc4c3)C2)c1 (stereo not drawn)
5,6.7,CNC1CCC(Nc2cccc3cnccc23)CC1 (stereo not drawn)
6,6.85,c1ccc(CN2CCC(Nc3cccc4cnccc34)CC2)cc1
7,6.15,CCN1CCC(Nc2ccc3[nH]ncc3c2)CC1
8,6.68,Clc1ccccc1CN1CCCC(Nc2cccc3cnccc23)C1 (stereo not drawn)
9,6.69,Nc1ccccc1CN1CCC(Nc2cccc3cnccc23)C1 (stereo not drawn)
10,6.28,c1ccc(CN[C@H]2CC[C@H](Nc3ccc4[nH]ncc4c3)CC2)cc1
11,6.56,Nc1cccc(CN2CCC(Nc3cccc4cnccc34)C2)c1 (stereo not drawn)
12,6.63,Nc1ccc(CN2CCC(Nc3cccc4cnccc34)C2)cc1 (stereo not drawn)
13,6.4,Fc1cc2[nH]ncc2cc1NC1CCCN(Cc2ccccc2)C1 (stereo not drawn)
14,6.74,CCCN[C@H]1CC[C@H](Nc2cccc3cnccc23)CC1
15,6.52,c1cc2[nH]ncc2cc1NC1CCNCC1
16,6.58,Clc1cccc(CN2CCCC(Nc3cccc4cnccc34)C2)c1 (stereo not drawn)
17,7,Clc1ccccc1CN1CCC(Nc2cccc3cnccc23)C1 (stereo not drawn)
18,6.39,c1ccc(CCN[C@H]2CC[C@H](Nc3cccc4cnccc34)CC2)cc1
